In ChEMBL document CHEMBL1124664, “Synthesis and cytostatic and antiviral activities of 1-beta-D-ribofuranosyl-5-alkylcytosine (5-alkylcytidine) cyclic 3',5'-monophosphates” (1989):
Values after ≈ are worked out from the molar mass of the structure shown. Active and inactive are the calls of the source. The rule behind the calls is not given here.

Assays:
[1] = tested on: Vesicular stomatitis virus; assay: Antiviral activity on the replication of vesicular stomatitis virus at 400 ug/mL.; assay type: functional, organism-based
Human alphaherpesvirus 2 = assay: Antiviral activity on the replication of HSV-2 at 400 ug/mL.; assay type: functional, organism-based
Human alphaherpesvirus 1 = assay: Antiviral activity on the replication of HSV-1 at 400 ug/mL.; assay type: functional, organism-based
Vaccinia virus = assay: Antiviral activity on the replication of vaccinia virus at 400 ug/mL.; assay type: functional, organism-based; details: Orthopoxvirus vaccinia
L1210 [2] = assay: Inhibition of L1210/0 cell proliferation; assay type: functional; details: Mus musculus, read-out: ID50 (the source's name)
Oryctolagus cuniculus = species on record: Oryctolagus cuniculus; assay: Inhibition of rabbit skeletal muscle protein kinase I; assay type: functional
L1210 [3] = assay: Cytotoxic activity against murine leukemia L1210 cells; assay type: functional; details: Mus musculus, read-out: ID50 (the source's name)
L1210 [4] = assay: Cytotoxic activity against murine leukemia L1210/deoxycytidine kinase deficient cell lines; assay type: functional; details: Mus musculus, read-out: ID50 (the source's name)
L1210/ara C [5] = assay: Inhibition of L1210/ara C cell proliferation; assay type: functional; details: Mus musculus, read-out: ID50 (the source's name)
L1210/ara C [6] = assay: Inhibition of L1210/arac cell proliferation at 200 ug/mL; IA means Inactive; assay type: functional, cell-based; details: Mus musculus

| Structure (SMILES) | Activity [1] | Activity (Human alphaherpesvirus 2) | Activity (Human alphaherpesvirus 1) | Activity (Vaccinia virus) | IC50 (L1210 [2]) [µg/mL] | Ka (Oryctolagus cuniculus) [µM] | IC50 (L1210 [3]) [µg/mL] | IC50 (L1210 [4]) [µg/mL] | IC50 (L1210/ara C [5]) [µg/mL] | Activity (L1210/ara C [6]) |
| --- | --- | --- | --- | --- | --- | --- | --- | --- | --- | --- |
| CCc1cn(C2O[C@H](COP(=O)(O)O)[C@@H](O)[C@H]2O)c(=O)nc1N (stereo partly specified) | inactive | inactive | inactive | inactive |  |  |  |  |  |  |
| CC(C)c1cn(C2O[C@H](COP(=O)(O)O)[C@@H](O)[C@H]2O)c(=O)nc1N (stereo partly specified) | inactive | inactive | inactive | inactive |  |  |  |  |  |  |
| Nc1ccn([C@@H]2O[C@@H]3COP(=O)(O)O[C@H]3[C@H]2O)c(=O)n1 |  |  |  |  | 43 (≈ 141 µM) | 0.03 |  |  |  |  |
| CCCCc1cn([C@@H]2O[C@@H]3COP(=O)(O)O[C@H]3[C@H]2O)c(=O)nc1N.N | inactive | inactive | inactive | inactive |  | 0.8 | > 200 | > 200 |  |  |
| CCCCCCc1cn(C2O[C@H](COP(=O)(O)O)[C@@H](O)[C@H]2O)c(=O)nc1N (stereo partly specified) | inactive | inactive | inactive | inactive |  |  |  |  |  |  |
| CC(C)c1cn([C@@H]2O[C@H](CO)[C@@H](O)[C@H]2O)c(=O)nc1N |  |  |  |  | 35 (≈ 123 µM) |  |  |  | 39 (≈ 137 µM) | inactive |
| CCCc1cn(C2O[C@H](COP(=O)(O)O)[C@@H](O)[C@H]2O)c(=O)nc1N (stereo partly specified) | inactive | inactive | inactive | inactive |  |  |  |  |  |  |
| Nc1ccn([C@@H]2O[C@H](COP(=O)(O)O)[C@@H](O)[C@H]2O)c(=O)n1 |  |  |  |  | 43 (≈ 133 µM) |  |  |  |  | inactive |
| CCCCCCCCc1cnc(O)nc1N |  |  |  |  | 190 (≈ 851 µM) |  |  |  |  | inactive |
| CCc1cn([C@@H]2O[C@@H]3COP(=O)(O)O[C@H]3[C@H]2O)c(=O)nc1N.N | inactive | inactive | inactive | inactive |  | 0.8 | > 200 | > 200 |  |  |
| CCCCCCCCc1cn([C@@H]2O[C@@H]3COP(=O)(O)O[C@H]3[C@H]2O)c(=O)nc1N.N | inactive | inactive | inactive | inactive |  | 0.8 | > 200 | > 200 |  |  |
| Cc1cn([C@@H]2O[C@H](CO)[C@@H](O)[C@H]2O)c(=O)nc1N |  |  |  |  | 94 (≈ 365 µM) |  |  |  |  | inactive |
| Cc1cn([C@@H]2O[C@@H]3COP(=O)(O)O[C@H]3[C@H]2O)c(=O)nc1N.N | inactive | inactive | inactive | inactive |  |  | > 200 | > 200 |  |  |
| CCCCCCc1cn([C@@H]2O[C@@H]3COP(=O)(O)O[C@H]3[C@H]2O)c(=O)nc1N.N | inactive | inactive | inactive | inactive |  | 0.8 | > 200 | > 200 |  |  |
| CC(C)c1cn([C@@H]2O[C@@H]3COP(=O)(O)O[C@H]3[C@H]2O)c(=O)nc1N.N | inactive | inactive | inactive | inactive |  | 0.8 | > 200 | > 200 |  |  |
| Cc1cn([C@@H]2O[C@H](COP(=O)(O)O)[C@@H](O)[C@H]2O)c(=O)nc1N | inactive | inactive | inactive | inactive | 162 (≈ 480 µM) |  |  |  |  | inactive |
| CCCCCc1cn(C2O[C@H](COP(=O)(O)O)[C@@H](O)[C@H]2O)c(=O)nc1N (stereo partly specified) | inactive | inactive | inactive | inactive |  |  |  |  |  |  |
| CCCCCCCCc1cn(C2O[C@H](COP(=O)(O)O)[C@@H](O)[C@H]2O)c(=O)nc1N (stereo partly specified) | inactive | inactive | inactive | inactive |  |  |  |  |  |  |
| CCCCc1cn(C2O[C@H](COP(=O)(O)O)[C@@H](O)[C@H]2O)c(=O)nc1N (stereo partly specified) | inactive | inactive | inactive | inactive |  |  |  |  |  |  |
